Source: US20080241211A1, “DEVICE WHICH ENHANCES THE BIOLOGICAL ACTIVITY OF LOCALLY APPLIED GROWTH FACTORS WITH PARTICULAR EMPHASIS ON THOSE USED FOR BONE REPAIR” (University of Southern California, priority 2007, published 2008)
“Also recorded” adds a separate entry of the source.

Legend:
MG-63 human osteoblasts = settings: via activation of the estrogen receptor; cited from earlier work
osteoblasts = settings: cited from earlier work
estrogen receptor = assay: Naringin enhancement of BMP-2 effect with estrogen receptor antagonist ICI182,780 in C2C12; assay type: cell-based; settings: FIG. 5
Protocol: Intracellular distribution of the estrogen receptor in skeletal myoblasts (C2C12) was determined by immuno-fluorescent staining (Milanesi, L., et al., J Cell Biochem, 2008). Naringin bind to estrogen receptor. Inhibition of estrogen receptor abrogate naringin effect. […] However, the mechanism by which naringin exerts its effects is still unclear. From our prelimianry study, there is evidence that naringin acts via estrogen-receptor (ER)-mediated signaling. Cells were cultured with naringin, in combination with 7α,17β-[9[(4,4,5,5,5-pentafluoropentyl)sulfinyl]nonyl] estra-1,3,5(10)-triene-3,17-diol (ICI182,780), a non-specific ERα and ERβ antagonist.

[1] = system: Pre-myoblast cell line C2C12; assay: BMP-2 induced ALP activity in C2C12 cell culture; assay type: cell-based
Protocol: C2C12 was plated in 96-well culture plate with density of 12.5K/well in 10% FBS/DMEM for 5 hours attachment. […] Cells were incubated at 37° C. for another 48 hours. Cell membrane associated ALP activity was tested by standard ALP assay.
C2C12 was plated in 96-well culture plate with density of 12.5K/well in 10% FBS/DMEM for 5 hours attachment. Medium was changed into 1% testing medium. Forty nano-gram of rhBMP-2 in 10 μl was added in every well and 1-1600 nM of naringin was added 10 minutes later.

[2] = system: Rat bone marrow derived stem cells; assay: MTT cell proliferation assay; assay type: cell-based; settings: 48 h, FIG. 6
Text: MTT was used for cell proliferation assay. MTT [3-(4,5-dimethylthiazol-2-yl)-2,5-diphenyltetrazolium bromide] assay is based on the ability of a mitochondrial dehydrogenase enzyme from viable cells to cleave the tetrazolium rings of the pale yellow MTT and form a dark blue formazan crystals which is largely impermeable to cell membranes, thus resulting in its accumulation within healthy cells. Rat bone marrow derived stem cells were selected by pro-plating methods. Cells used in this study were from passages 3-4. 1×10^7 viable cells/mL in culture media containing 10% FCS were dispensed 100 μL per well in 96 well flat bottomed tissue culture plates. Cells were allow to grow with and without naringin and incubated plates in a humidified CO2 incubator at 37° C. for 48 h. 10 μL of MTT solution were added to all wells of 48 h cultured stem cells and incubate for 4 h at 37° C. After washing cells 3 times with PBS, dark blue dye in cells were dissolved with DMSO. After a few minutes at room temperature read plates using a plate reader in dual wavelength measuring system, at 540 nm and a reference wavelength of 630 nm.
Dose dependent of naringin on bone marrow stem cell proliferation was studied. Cell number was assayed by MTT method. […] (see FIG. 6).

[3] = Collagen sponge implants, subcutaneous or intramuscular bone induction in rats; assay type: in vivo, rat
Protocol: Collagen sponge was either blended with naringin solution or covalently crosslinked naringin to collagen sponges. Different doses of BMP-2 were added to the matrices before implantation. Samples were placed intramuscular in thigh muscle. Ten Fisher 344 rats with 180 g in weight were used in this study. Implants were be retrieved 28 days postoperatively. Explants were dissected free of muscle flaps and cut into halves. One half of each explant was used for alkaline phosphatase assay.
Based on these surprising discoveries, the inventors concluded that specific growth factors are needed in addition to naringin for bone to form (FIG. 3).
It will be recognized by one skilled in the art that osteoinductive enhancers are particularly useful in situations where fracture healing is compromised, such as in older people where biosynthetic abilities may be declining, or in situations where not sufficient bone is available for repair. It will also be understood by one of ordinary skill in the art that the addition of growth factors (natural or synthetic) to the naringin containing preparation is essential for osteoinduction.

[4] = DBM with naringin in abdominal muscle pouches of nude rats, ectopic bone formation; assay type: in vivo; settings: optimized dose of naringin
Protocol: Osteoinductive (OI) activity of human DBM obtained from Tissue Bank with particle size of 210-750 micrometers was tested in vitro with cell culture methods (Han, 2003). DBM were grouped according their OI score.
Two doses of naringin were used to treat DBM particles before implantation. In 50 mg of DBM, 50 micro liter of 100 micromolar or […] of naringin/PBS solution was added into DBM before implantation.
Muscle pouches were created in abdominal muscles bilaterally in nude rats (weighing 120-150 g each) at 6 sites by sharp and blunt dissection. Subsequently, fifty milligrams of three groups of DBM, two doses of naringin/PBS and with PBS alone, were packed into pouches and closed with a single absorbable suture. Implants were retrieved 28 days postoperatively. The recti abdomini muscles were excised as single muscle flaps and placed in cold PBS moisturized paper towels for radiography. Explants were dissected free of muscle flaps and cut into halves. One half of each explant were used for alkaline phosphatase assay and the other half were fixed in 10% neutral buffered formalin solution for 24 hours and decalcified with a decalcifying solution (Stephens Scientific, Riverdale, N.J.) for 48 hours. The decalcified explants were paraffin-embedded and sectioned with a […] microtome. […]

Q: For O=c1c(O)c(-c2ccc(O)cc2)oc2cc(O)cc(O)c12 [kaempferol], which “alkaline phosphatase activity in MG-63 human osteoblasts” value (MG-63 human osteoblasts) is on record?
A: induced an increase in alkaline phosphatase activity

Q: For O=c1c(-c2ccc(O)cc2)coc2cc(O)ccc12 [daidzein], which “increase of viability of osteoblasts” value (osteoblasts; daidzein 2-50 microM, P<0.05) is on record?
A: about 1.4 fold

Q: What about the “increase of alkaline phosphatase activity of osteoblasts” value (osteoblasts; daidzein 2-100 microM, P<0.05) of the same compound?
A: about 1.4 fold

Q: And the “increase of osteocalcin synthesis of osteoblasts” value (osteoblasts; daidzein 2-100 microM, P<0.05)?
A: ~2.0 fold

Q: What about the “BMP2 mRNA increase” value (osteoblasts; osteoblasts) of the same compound?
A: 5.0 fold

Q: What about the BMP2 protein increase (osteoblasts; osteoblasts) of the same compound?
A: 7.0 fold

Q: For C[C@]12CC[C@@H]3c4ccc(O)cc4C[C@@H](CCCCCCCCC[S+]([O-])CCCC(F)(F)C(F)(F)F)[C@H]3[C@@H]1CC[C@@H]2O (stereo partly drawn) [ICI, 7α,17β-[9[(4,4,5,5,5-pentafluoropentyl)sulfinyl]nonyl] estra-1,3,5(10)-triene-3,17-diol], which “effect of estrogen receptor antagonist on naringin enhancing BMP-2 effect” value (estrogen receptor) is on record?
A: partially block naringin enhancing BMP-2 effect

Q: Which results are given for C[C@@H]1O[C@@H](O[C@H]2[C@H](Oc3cc(O)c4c(c3)O[C@H](c3ccc(O)cc3)CC4=O)O[C@H](CO)[C@@H](O)[C@@H]2O)[C@H](O)[C@H](O)[C@H]1O [naringin]?
A: naringin concentration with maximal enhancing ALP effect ([1]; 40 ng rhBMP-2 per well, 1-1600 nM naringin added 10 minutes later, FIG. 4): 800 nM; increase of BMP-2 activity by naringin ([1]; BMP-2 plus naringin versus BMP-2 alone, FIG. 3): four-fold; BMP-2 activity in the ALP assay when naringin is added ([1]; BMP-2 plus naringin, FIG. 3): 0.4; induction of differentiation in osteoprogenitor cells by alkaline phosphatase activity ([1]; C2C12, preliminary results): significant induction of differentiation; effect of naringin on BMP-2 induced ALP activity ([1]; naringin added to BMP-2, C2C12, FIG. 3): increases the upregulation of alkaline phosphatase activity by BMP-2; also recorded: dose dependently increase BMP-2 induced ALP activity; effect of naringin by itself on ALP activity / osteoinductivity ([1]; naringin alone, no BMP-2, C2C12, 48 hours): not enough for osteogenic induction; also recorded: no effect on ALP activity; also recorded: no osteoinductivity at all; bone marrow stem cell proliferation (MTT) [2]: inhibits rat bone marrow cell proliferation; new bone induction ([3]; collagen sponges with naringin plus growth factors (BMP2 and/or BMP7), subcutaneous or intramuscular model): did induce bone; new bone induction ([3]; naringin alone with collagen carrier, no growth factors, rats): do not induce new bone; also recorded: not sufficient to induce bone; also recorded: no bone was formed; also recorded: no effect; DBM activity in regard of ectopic bone formation potential [4]: significantly increased

Q: For O=c1c(O)c(-c2ccc(O)c(O)c2)oc2cc(O)cc(O)c12 [quercetin], which “alkaline phosphatase activity in MG-63 human osteoblasts” value (MG-63 human osteoblasts) is on record?
A: induced an increase in alkaline phosphatase activity
